From PMC7895462 (Neurochemical research, 2017) come the findings set out here.

The nature of data set [1]: Minimal motor impairment.
Data set [2] can be described thus: Open field activity monitor of rats. The conditions noted are these: rat; i.p.; 45 and 60 mg/kg; 10 min; vs vehicle. The data set is classed as in vivo.
The test system of data set [3] is 60 Hz corneal kindled seizures.
The test system of data set [4] is psychomotor seizures induced by 6 Hz 44 mA corneal stimulus. In words: 6 Hz 44 mA mouse test. Type of data set: in vivo. The following applies: 6 Hz 44 mA.
The test system of data set [5] is MES-induced seizures. In words: Maximal electroshock. Type of data set: in vivo. For orientation: The maximal electroshock test induces tonic seizures with an electrical stimulus.
The subject of data set [6] is MES-induced seizures. Kind of data set: Maximal electroshock. The data set is classed as in vivo. This is another data set of the same source.
Setting [7] is: 30 mg/kg (n = 2 mice) and 40 mg/kg (n = 1 mouse).
[8] abbreviates: i.p., 0.5 and 2 h, default doses 30, 100, 300 mg/kg.
[9] abbreviates: p.o., 0.5 and 2 h, default doses 30, 100, 300 mg/kg.

Turning to `Clc1cccc(N2CCNCC2)c1` [m-CPP, meta-chlorophenylpiperazine], in data set [1] (i.p.), the “Rat I.P. identification TOX” value is recorded as “−” and the “Rat I.P. quantification TOX (TD50)” value is listed as less than 10 mg/kg. The “Rat P.O. identification TOX” value in data set [1] (p.o.) is recorded as “−”. The “total distance travelled in the open field” value in data set [2] is “significant, dose-dependent reduction”. The “protected in the corneal kindled mouse” value in data set [3] (20 mg/kg, i.p., 15 min prior to testing) was 0/8. Further, in data set [3] (setting [7]), the “protection in the corneal kindled mouse” value is on record as “lack of protection”. Besides, in data set [3] (at the highest doses tested), the “adverse side effects in corneal kindled mice” value was “severe adverse side effects, including splaying, tremors, and mortality following seizure”. For the same molecule, the “Mouse CKM (I.P.) ID” value in data set [3] (i.p.) is listed as “−”. The “Mouse I.P identification 44 mA” value in data set [4] (setting [8]) is on record as “−”. The “Mouse I.P. quantification 44 mA (ED50)” value in data set [4] (i.p., at time of peak effect) is greater than 55 mg/kg. The “Mouse P.O. identification 44 mA” value in data set [4] (setting [9]) was “−”. Besides, in data set [5] (setting [8]), the “Mouse I.P identification MES” value is “−”. In addition, in data set [5] (i.p., at time of peak effect), the “Mouse I.P. quantification MES (ED50)” value is reported as greater than 60 mg/kg. In addition, in data set [5] (mouse, i.p.), the “protective index (PI), i.p., MES test” value was “less than 1.0”. Besides, the “Mouse P.O. identification MES” value in data set [5] (setting [9]) is recorded as “−”. Besides, the “mice protected in the MES test” value in data set [5] (screening, at 10 and 30 mg/kg) was “one out of four”. The “MMI in corneal kindled mice” value under setting [7] was “significant MMI in all animals tested”. For the same molecule, the “mice with significant MMI on the rotarod assay” value (corneal kindled mice, 20 mg/kg, i.p., 15 min) was 3/8. Under setting [8], the “Mouse I.P identification TOX” value is on record as “+”. Moreover, the “Mouse I.P. quantification TOX (TD50)” value (i.p., rotorod) was found to be 52.6 mg/kg. Under setting [9], the “Mouse P.O. identification TOX” value is “−”. For the same molecule, in data set [6] (i.p.), the “Rat I.P. identification MES” value was “+” and the “Rat I.P. quantification MES (ED50)” value is 37.1 mg/kg. The “Rat P.O. identification MES” value in data set [6] (p.o.) was “+”.
